The assay concerns the target T1, WT KCNT1 channels (Homo sapiens, UniProt Q5JUK3).
T1 construct: YFP-6His; expressed in transfected cells; host or cells: HEK293T
T1 sequence (Q5JUK3 1-1235 isoform Q5JUK3-3): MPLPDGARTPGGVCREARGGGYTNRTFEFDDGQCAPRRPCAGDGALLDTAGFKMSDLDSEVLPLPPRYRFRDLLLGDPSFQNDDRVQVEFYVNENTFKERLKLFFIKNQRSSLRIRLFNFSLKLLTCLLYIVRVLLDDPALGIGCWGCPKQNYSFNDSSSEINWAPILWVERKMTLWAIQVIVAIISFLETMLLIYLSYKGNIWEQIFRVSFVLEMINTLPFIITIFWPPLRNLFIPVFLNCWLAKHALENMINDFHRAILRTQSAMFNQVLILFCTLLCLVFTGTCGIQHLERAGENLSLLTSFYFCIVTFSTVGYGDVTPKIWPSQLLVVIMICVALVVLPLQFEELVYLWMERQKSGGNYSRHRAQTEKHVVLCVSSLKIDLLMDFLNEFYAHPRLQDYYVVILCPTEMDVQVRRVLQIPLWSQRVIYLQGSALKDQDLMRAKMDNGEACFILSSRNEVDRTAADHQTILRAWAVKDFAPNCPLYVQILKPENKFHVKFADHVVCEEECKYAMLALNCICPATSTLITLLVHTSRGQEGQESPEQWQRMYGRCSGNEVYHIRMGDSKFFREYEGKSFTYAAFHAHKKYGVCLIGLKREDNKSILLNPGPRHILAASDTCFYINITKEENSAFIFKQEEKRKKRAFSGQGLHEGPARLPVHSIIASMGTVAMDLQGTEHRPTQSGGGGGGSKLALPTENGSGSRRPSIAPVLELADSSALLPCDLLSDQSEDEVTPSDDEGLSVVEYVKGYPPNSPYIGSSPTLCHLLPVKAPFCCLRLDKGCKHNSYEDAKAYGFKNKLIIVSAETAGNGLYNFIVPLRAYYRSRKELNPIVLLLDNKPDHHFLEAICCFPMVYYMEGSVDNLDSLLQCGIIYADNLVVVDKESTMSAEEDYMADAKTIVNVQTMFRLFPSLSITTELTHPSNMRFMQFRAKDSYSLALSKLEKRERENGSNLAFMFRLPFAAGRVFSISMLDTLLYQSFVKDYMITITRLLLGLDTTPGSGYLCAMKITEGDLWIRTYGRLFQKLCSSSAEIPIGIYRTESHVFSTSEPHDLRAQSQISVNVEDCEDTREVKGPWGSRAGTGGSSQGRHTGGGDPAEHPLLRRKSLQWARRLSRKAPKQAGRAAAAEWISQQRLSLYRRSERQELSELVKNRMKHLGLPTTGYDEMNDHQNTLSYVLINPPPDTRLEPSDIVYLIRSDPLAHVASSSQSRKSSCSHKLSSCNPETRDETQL
Description: Inside-out patch clamp of HEK293T cells expressing WT KCNT1 channels. The format is cell-based. The settings on record: inside-out patches; for inhibition at 0.05 µM: HEK-293T, 50 nM, read-out: inhibition of WT human KCNT1 channel activity; for IC50: WT, mean ± SEM. The protocol: The CHO cells were cultured in Dulbecco's modified Eagle's Medium (ThermoFisher, UK) supplemented with 10% (v/v) fetal bovine serum, 50 U/ml penicillin and 0.05 mg/ml streptomycin, and incubated at 37°C in 5% CO2 atmosphere. For whole cell recording of WT/Y796H KCNT1, CHO cells were transiently co‐transfected with concatemeric WT/Y796H and EYFP, as described previously.[29] For electrophysiological experiments, cells were plated onto borosilicate glass cover slips and used 2 to 4 days later. Human embryonic kidney 293T cells (HEK293T) were cultured in the same manner, but with medium supplemented with 2 mM L‐glutamine, and 1% (v/v) nonessential amino acids. For excised inside‐out recording of homomeric WT or mutant YFP‐tagged KCNT1, HEK293T cells plated on glass cover slips were transfected using Attractene Transfection Reagent (Qiagen, Germany) according to the manufacturer's instructions and used 2 to 3 days later.
Inside‐out patch clamp recordings were made at room temperature (23°C) from transiently transfected HEK293T cells, as described previously.[11] The pipette solution contained, in mM, 140 NaCl, 4 KCl, 2 CaCl2, 2 MgCl2, and 10 HEPES adjusted to pH 7.4 with NaOH. After achieving the inside‐out configuration, the intracellular face of the membrane was constantly perfused with a solution containing, in mM, 35 NaCl, 110 KCl, 0.2 EGTA, and 10 HEPES adjusted to pH 7.3 with KOH. Drug stock solutions of 5 to 20 mM in DMSO were first diluted in ethanol (1:10) and then in electrophysiological solution. KCNT1 currents were recorded using 2 voltage protocols, depending on the number of active channels in the patch before drug application. Macroscopic currents (number of active channels > 15) were recorded in response to 100 ms voltage ramps between −120 and 120 mV applied every 2 seconds from a holding potential of −78 mV. The average current amplitudes between 0 and 40 mV were used for the analyses and constructing the concentration‐response curves. With a lower number of active channels in the patch (3–15), current traces were recorded in response to 15‐second voltage steps to −20, 0, and 20 mV from a holding potential of −78 mV. Currents recorded at each voltage and each drug concentration were averaged over the duration of the trace and normalized to the average amplitudes of the corresponding current traces in drug‐free solution. The normalized data for all 3 voltage steps were then averaged for each drug concentration and used to build the concentration‐response curves (see Supplementary Fig S3). To determine the IC50, data were fitted with the Hill equation, as described previously.[11] Single channel data were analyzed using Ana software developed by Dr Michael Pusch (Istituto di Biofisica, Genova, Italy; http://users.ge.ibf.cnr.it/pusch/programs-mik.htm). In patch clamp data “n” represents number of cells, and all experiments were repeated using cells from a minimum of 2 separate transfections.
Background: In patch-clamp work, channel activity is measured electrically.

Structures can show the parent of a compound that is named as a salt.

With `O=C(OCCN1CCN(c2cccc(C(F)(F)F)c2)CC1)c1ccccc1Nc1ccnc2cc(C(F)(F)F)ccc12` [antrafenine], the inhibition at 0.05 µM is more than 60% and the IC50 worked out at 12.6 ± 3.6 nM. For the molecule `CC(C)c1c(C(=O)Nc2ccccc2)c(-c2ccccc2)c(-c2ccc(F)cc2)n1CC[C@@H](O)C[C@@H](O)CC(=O)O` [atorvastatin], the “inhibition of KCNT1 activity at 10 μM (in words)” value is on record as “not fully inhibiting” and the IC50 stood at 1900 ± 600 nM. For the molecule `Cc1c(O)cccc1C(=O)N[C@@H](CSc1ccccc1)[C@H](O)CN1C[C@H]2CCCC[C@H]2C[C@H]1C(=O)NC(C)(C)C` [nelfinavir mesylate], the inhibition at 0.05 µM is more than 60% and the IC50 is 14.3 ± 2.6 nM. With `CNC(=O)c1cc(Oc2ccc(NC(=O)Nc3ccc(Cl)c(C(F)(F)F)c3)c(F)c2)ccn1` [regorafenib], the “inhibition of KCNT1 activity at 10 μM (in words)” value is “not fully inhibiting”.

Usually inhibition stands for the drop in the measured response relative to a control, in per cent. As usually defined, the IC50 is the concentration at which inhibition is half-maximal. Low readings indicate greater potency, high ones weaker potency.

(Values after article PMC12682947, “Identification of New KCNT1‐Epilepsy Drugs by In Silico, Cell, and Drosophila Modeling” (Annals of Neurology, 2025).)
